In BigSolDB 2.1:

Row | solubility (mole fraction) (in PEGDME 250, 293.15 K) | solubility (mole fraction) (in PEGDME 250, 298.15 K) | solubility (mole fraction) (in PEGDME 250, 303.15 K) | solubility (mole fraction) (in PEGDME 250, 308.15 K) | solubility (mole fraction) (in PEGDME 250, 313.15 K) | solubility (mole fraction) (in water, 293.15 K) | solubility (mole fraction) (in water, 298.15 K) | solubility (mole fraction) (in water, 303.15 K) | solubility (mole fraction) (in water, 308.15 K) | solubility (mole fraction) (in water, 313.15 K) | Structure (SMILES)
1 | 0.15 | 0.174 | 0.196 | 0.216 | 0.236 | 0.00151 | 0.00201 | 0.0022 | 0.00288 | 0.00334 | CC(=O)Nc1ccc(O)cc1
2 | 0.347 | 0.382 | 0.415 | 0.45 | 0.486 | 0.000205 | 0.000251 | 0.000306 | 0.000372 | 0.00046 | O=C(O)c1ccccc1O
